In brackets after ≈: the same amount, converted by molar mass.
Each molecule was assayed on Staphylococcus aureus Smith (assay: MIC assay, modified agar dilution (CLSI), S. aureus Smith). Details: Staphylococcus aureus, agar dilution, 35° C., 16-20 hr; lowest concentration that completely inhibited growth; read-out: S_aureus_Smith_WT_MIC.
Type: cell-based
Method in brief: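 Agar dilution per CLSI on Mueller Hinton agar (plus 5% horse blood for S. pneumoniae and E. faecium), compound 128 to 0.001 μg/mL in two-fold steps. Spots of ~1×10^4 CFU incubated at 35 °C for 16-20 hr before MIC scoring.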

Going from `N#Cc1cnc2ccc(=O)n(CC(O)C34CCC(NCc5ccc6c(n5)NC(=O)CO6)(CC3)CO4)c2c1` (single isomer, unassigned; enantiomer a) [Example 160, 5-(2-Hydroxy-2-(4-((3-oxo-3,4-dihydro-2H-pyrido[3,2-b][1,4]oxazin-6-yl)methylamino)-2-oxabicyclo[2.2.2]octan-1-yl)ethyl)-6-oxo-5,6-dihydro-1,5-naphthyridine-3-carbonitrile (Enantiomer A)] to `N#Cc1cnc2ccc(=O)n(CCC34CCC(NCc5ccc6c(n5)NC(=O)CO6)(CC3)CO4)c2c1` [Example 128, 6-Oxo-5-(2-(4-((3-oxo-3,4-dihydro-2H-pyrido[3,2-b][1,4]oxazin-6-yl)methylamino)-2-oxabicyclo[2.2.2]octan-1-yl)ethyl)-5,6-dihydro-1,5-naphthyridine-3-carbonitrile], the MIC falls from 0.25 µg/mL (≈ 0.497 µM) to 0.063 µg/mL (≈ 0.129 µM) (4-fold).

Compared with `COc1ccc2ncc(Cl)c(OCC34CCC(NCc5ccc6c(n5)NC(=O)CO6)(CC3)CC4)c2n1` [Example 15, 6-((4-((3-Chloro-6-methoxy-1,5-naphthyridin-4-yloxy)methyl)bicyclo[2.2.2]octan-1-ylamino)methyl)-2H-pyrido[3,2-b][1,4]oxazin-3(4H)-one], `COc1ccc2ncc(N)c(CCC34CCC(NCc5ccc6c(n5)NC(=O)CO6)(CC3)CC4)c2n1.Cl` [Example 3, 6-((4-(2-(3-Amino-6-methoxy-1,5-naphthyridin-4-yl)ethyl)bicyclo[2.2.2]octan-1-ylamino)methyl)-2H-pyrido[3,2-b][1,4]oxazin-3(4H)-one Hydrochloride] is 8.1-fold higher in MIC: 0.031 µg/mL (≈ 0.0608 µM) for the first, 0.25 µg/mL for the second.

Going from `O=C1COc2ccc(CNC34CCC(CCc5c(F)cnc6ccc(OCCCCCO)nc56)(CC3)OC4)nc2N1` [Example 37, 6-((1-(2-(3-Fluoro-6-(5-hydroxypentyloxy)-1,5-naphthyridin-4-yl)ethyl)-2-oxabicyclo[2.2.2]octan-4-ylamino)methyl)-2H-pyrido[3,2-b][1,4]oxazin-3(4H)-one] to `CN(C)c1ccc2ncc(F)c(CCC34CCC(NCc5ccc6c(n5)NC(=O)CO6)(CC3)CO4)c2n1` [Example 29, 6-((1-(2-(6-(Dimethylamino)-3-fluoro-1,5-naphthyridin-4-yl)ethyl)-2-oxabicyclo[2.2.2]octan-4-ylamino)methyl)-2H-pyrido[3,2-b][1,4]oxazin-3(4H)-one], the MIC rises from 0.063 µg/mL (≈ 0.111 µM) to 0.25 µg/mL (≈ 0.494 µM) (4-fold).

First: Cc1nnc2c(=O)n(CCC34CCC(NCc5ccc6c(n5)NC(=O)CO6)(CC3)CO4)c3ccccc3n12 [Example 117, 6-((1-(2-(1-Methyl-4-oxo-[1,2,4]triazolo[4,3-a]quinoxalin-5(4H)-yl)ethyl)-2-oxabicyclo[2.2.2]octan-4-ylamino)methyl)-2H-pyrido[3,2-b][1,4]oxazin-3(4H)-one]
Second: COc1ccc2ncc(OC)c(CCC34CCC(NCc5ccc6c(n5)NC(=O)CO6)(CC3)CO4)c2n1 [Example 50, 6-[({1-[2-(3,6-Dimethoxy-1,5-naphthyridin-4-yl)ethyl]-2-oxabicyclo[2.2.2]oct-4-yl}amino)methyl]-2H-pyrido[3,2-b][1,4]oxazin-3(4H)-one]
The MIC of the first is 510-fold higher: 64 µg/mL (≈ 124 µM) for the first, 0.125 µg/mL (≈ 0.247 µM) for the second.

Compared with `COc1ccc2ncc(F)c(CCC34CCC(NCc5cn(C)c(=O)n(C)c5=O)(CC3)CO4)c2n1` [Example 94, 5-((1-(2-(3-Fluoro-6-methoxy-1,5-naphthyridin-4-yl)ethyl)-2-oxabicyclo[2.2.2]octan-4-ylamino)methyl)-1,3-dimethylpyrimidine-2,4(1H,3H)-dione], `COc1ccc2ncc(F)c(CCC34CCC(NCc5ncc6c(n5)OCCO6)(CC3)CO4)c2n1` [Example 144, N-((6,7-Dihydro-[1,4]dioxino[2,3-d]pyrimidin-2-yl)methyl)-1-(2-(3-fluoro-6-methoxy-1,5-naphthyridin-4-yl)ethyl)-2-oxabicyclo[2.2.2]octan-4-amine] is lower in MIC: over 16 µg/mL for the first, 0.125 µg/mL (≈ 0.26 µM) for the second.

`COc1ccc2ncc(Cl)c(CCC34CCC(NCc5ccc6cccnc6n5)(CC3)CC4)c2n1` [Example 58, N-((1,8-Naphthyridin-2-yl)methyl)-4-(2-(3-chloro-6-methoxy-1,5-naphthyridin-4-yl)ethyl)bicyclo[2.2.2]octan-1-amine] was tested, and the MIC was 0.125 µg/mL (≈ 0.256 µM).

From patent US20140243302A1, “BRIDGED BICYCLIC COMPOUNDS FOR THE TREATMENT OF BACTERIAL INFECTIONS” (priority 2011, published 2014)
